The values below are quoted from earlier work in patent publication US8617286B2, “Method for increasing crop yield” (priority 2010, dated 2013).

The test system of this data set is nitrification of ammonia nitrogen into nitrate. The conditions noted are these: general statement, no test described.

Regarding `N#CN=C(N)N` [DCD, dicyandiamide], the “slowing of nitrification of ammonia nitrogen into nitrate” value is “about 80%”.
